Values of other authors in patent US6569457B2, “Enteric coated pharmaceutical tablet and method of manufacturing” (priority 1998, dated 2003).

degradation at acidic pH: degrades rapidly
Structure (SMILES): O=c1[nH]cnc2c1ncn2C1CCC(CO)O1 (stereo not shown) [ddl, 2′,3′-dideoxyinosine]
